Results as given in patent US10334829B2, “IMiD screening methods IMiD-sensitive cells with mutant CRBN” (THE BROAD INSTITUTE, INC., priority 2013, dated 2019).
Entries after “also recorded” stand apart in the source; their conditions may differ. Residues, ends and D or L forms follow the SMILES beside them. *: point of attachment. Cbz = O=C(OCc1ccccc1)*

Key:
RAB28 = molecular target: T1, RAB28 (Homo sapiens, UniProt P51157); assay: ORF-firefly luciferase reporter assay in 293T cells; format: cell-based; details: 1 μM lenalidomide, 24 hours
T1 construct: expressed in transfected cells; host or cells: 293T
Procedure: The cDNAs of candidate genes, fused to firefly luciferase (FFluc), were expressed in 293T cells.
The luciferase reporter plasmid CMV-IRES-RenillaLUC-IRES-Gateway-FireflyLUC (11) was a kind gift from William G. Kaelin (Dana-Farber Cancer Institute). Cloning of cDNAs was performed using Gateway LR reaction (invitrogen). […] After an additional 24 hours, dual luciferase assays were performed using the Dual-Glo Luciferase Assay System (Promega) according to the manufacturer's protocol.

CSNK1A1 [1] = assay: Immunoblot of CSNK1A1 in murine Baf3 and primary murine AML cells, with or without expressed CRBN variants; format: cell-based, mouse
Procedure: CSNK1A1 protein levels were assessed by immunoblot. […] Non-conserved amino acids are indicated by red bars.
Variants of human and mouse CRBN were cloned into a modified pRSF91 backbone to generate SFFV-CRBN-IRES-GFP-T2A-Puro retroviral constructs. 200,000 Ba/F3 cells were infected with ecotropic retrovirus in the presence of 2 μg/ml polybrene. After 24 hours, 1 μg/ml puromycin (Gibco) was added and cells were selected for 3-4 days. […] Protein lysates were harvested and immunoblotted for CK1α as described above.

CSNK1A1 [2] = assay: RQ-PCR of CSNK1A1 mRNA in human cells; format: cell-based
Procedure: Relative expression levels were calculated using the ΔΔCT method.

CBR1 = molecular target: T2, CBR1 (Homo sapiens, UniProt P16152); assay: CBR1 biochemical assays
T2 sequence (P16152 1-277): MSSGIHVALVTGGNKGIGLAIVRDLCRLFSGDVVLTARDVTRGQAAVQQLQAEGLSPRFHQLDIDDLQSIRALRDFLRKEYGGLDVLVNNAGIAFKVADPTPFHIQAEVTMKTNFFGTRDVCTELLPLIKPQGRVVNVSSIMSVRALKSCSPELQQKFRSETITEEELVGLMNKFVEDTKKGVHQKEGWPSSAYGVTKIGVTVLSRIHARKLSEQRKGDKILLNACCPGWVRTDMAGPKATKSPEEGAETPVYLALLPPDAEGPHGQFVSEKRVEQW

IKZF1 and IKZF3 [3] = assay: Immunoblot of IKZF1 and IKZF3 protein in multiple myeloma cells; format: cell-based, human
Procedure: The FK2 antibody detects covalently linked ubiquitin.
Protein lysates were run on Tris-HCl, 1 mm Criterion™ Precast gels (Bio-Rad) at a constant voltage. Proteins were transferred onto Imobilon-P transfer membranes (Millipore) at a constant amperage. Before staining, blots were blocked in 5% BSA in TBST for 30 minutes.

IRF4 = IRF4 protein and mRNA levels in MM1S cells; format: cell-based, human
Text: FIG. 14E is a graph showing IRF4 RNA expression levels after IKZF3 knockdown.

IKZF3 = assay: Immunoblot of IKZF3 in T cells isolated from mCRBN^I391V knock-in or wild type mice; format: cell-based, mouse; details: 0, 1 or 10 μM
Text: IKZF3 protein levels was detected by immunoblot (IB). Actin was included as a protein loading control.

MM1S cells = assay: CellTiter-Glo luminescent cell viability assay; format: cell-based, human; details: MM1S (sensitive) versus K562 (insensitive) cells, 6 days
Procedure: FIGS. 2A, 2B-1, 2B-2 and 2C are provided. […] For a biological replicate SILAC labeling for the two conditions was switched.
On the respective days, total cellular ATP content was assessed using CellTiter-Glo® Luminescent Cell Viability Assay (Promega) according to the protocol. Luminescence was assessed by a multimode detector DTX880 (Beckman Coulter).

CSNK1A1 [4] = molecular target: T3, CSNK1A1 (Homo sapiens, UniProt P48729+Q96SW2); assay: Immunoblot of CSNK1A1 (CK1α) protein in human cell lines; format: cell-based; details: KG-1 cells, 6 hours
T3 construct: endogenous in cells; host or cells: KG-1
Procedure: Protein lysates were run on Tris-HCl, 1 mm Criterion™ Precast gels (Bio-Rad) or NuPAGE Bis-Tris gels (Novex) gels at a constant voltage. Proteins were transferred onto Immobilon-P transfer membranes (Millipore) at a constant amperage. Before staining with primary antibodies, blots were blocked in 5% non-fat dry milk (Santa Cruz) or BSA in TBST for 30 minutes.
Secondary antibodies were HRP conjugated Bovine anti-Goat (Jackson ImmunoResearch) and HRP conjugated donkey anti-rabbit (GE Healthcare). Supersignal chemi-luminescent substrate was used for detection. For re-probing, blots were stripped in Restore Western Blot Stripping Buffer (Thermo Scientific), activated in methanol, and re-blocked.

IKZF1 and IKZF3 [5] = assay: ORF-firefly luciferase reporter assay in 293T cells; format: cell-based, human; details: 1 μM MLN-4924

T3 sequence (P48729 whole entry): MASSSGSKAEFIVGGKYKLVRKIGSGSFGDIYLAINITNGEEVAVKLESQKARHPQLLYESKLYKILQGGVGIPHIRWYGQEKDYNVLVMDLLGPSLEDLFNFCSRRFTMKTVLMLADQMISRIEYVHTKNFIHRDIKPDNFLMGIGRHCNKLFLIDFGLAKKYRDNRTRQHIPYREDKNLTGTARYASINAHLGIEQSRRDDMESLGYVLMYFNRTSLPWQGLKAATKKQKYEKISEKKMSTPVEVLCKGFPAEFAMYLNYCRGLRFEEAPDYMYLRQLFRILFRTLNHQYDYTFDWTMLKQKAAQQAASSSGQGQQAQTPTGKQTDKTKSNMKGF
T3 sequence (Q96SW2 whole entry): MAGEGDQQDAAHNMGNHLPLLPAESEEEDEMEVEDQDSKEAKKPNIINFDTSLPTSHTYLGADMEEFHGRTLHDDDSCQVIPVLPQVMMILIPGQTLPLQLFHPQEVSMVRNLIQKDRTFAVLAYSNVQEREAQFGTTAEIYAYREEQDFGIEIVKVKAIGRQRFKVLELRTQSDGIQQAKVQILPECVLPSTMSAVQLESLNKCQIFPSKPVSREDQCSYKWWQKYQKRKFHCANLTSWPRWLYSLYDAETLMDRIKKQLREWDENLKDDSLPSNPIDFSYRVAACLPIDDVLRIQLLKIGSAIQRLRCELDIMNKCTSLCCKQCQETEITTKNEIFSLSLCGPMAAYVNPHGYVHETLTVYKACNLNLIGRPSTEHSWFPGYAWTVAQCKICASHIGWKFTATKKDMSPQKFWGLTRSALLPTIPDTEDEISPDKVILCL
T3 sequence (Q16531 whole entry partner): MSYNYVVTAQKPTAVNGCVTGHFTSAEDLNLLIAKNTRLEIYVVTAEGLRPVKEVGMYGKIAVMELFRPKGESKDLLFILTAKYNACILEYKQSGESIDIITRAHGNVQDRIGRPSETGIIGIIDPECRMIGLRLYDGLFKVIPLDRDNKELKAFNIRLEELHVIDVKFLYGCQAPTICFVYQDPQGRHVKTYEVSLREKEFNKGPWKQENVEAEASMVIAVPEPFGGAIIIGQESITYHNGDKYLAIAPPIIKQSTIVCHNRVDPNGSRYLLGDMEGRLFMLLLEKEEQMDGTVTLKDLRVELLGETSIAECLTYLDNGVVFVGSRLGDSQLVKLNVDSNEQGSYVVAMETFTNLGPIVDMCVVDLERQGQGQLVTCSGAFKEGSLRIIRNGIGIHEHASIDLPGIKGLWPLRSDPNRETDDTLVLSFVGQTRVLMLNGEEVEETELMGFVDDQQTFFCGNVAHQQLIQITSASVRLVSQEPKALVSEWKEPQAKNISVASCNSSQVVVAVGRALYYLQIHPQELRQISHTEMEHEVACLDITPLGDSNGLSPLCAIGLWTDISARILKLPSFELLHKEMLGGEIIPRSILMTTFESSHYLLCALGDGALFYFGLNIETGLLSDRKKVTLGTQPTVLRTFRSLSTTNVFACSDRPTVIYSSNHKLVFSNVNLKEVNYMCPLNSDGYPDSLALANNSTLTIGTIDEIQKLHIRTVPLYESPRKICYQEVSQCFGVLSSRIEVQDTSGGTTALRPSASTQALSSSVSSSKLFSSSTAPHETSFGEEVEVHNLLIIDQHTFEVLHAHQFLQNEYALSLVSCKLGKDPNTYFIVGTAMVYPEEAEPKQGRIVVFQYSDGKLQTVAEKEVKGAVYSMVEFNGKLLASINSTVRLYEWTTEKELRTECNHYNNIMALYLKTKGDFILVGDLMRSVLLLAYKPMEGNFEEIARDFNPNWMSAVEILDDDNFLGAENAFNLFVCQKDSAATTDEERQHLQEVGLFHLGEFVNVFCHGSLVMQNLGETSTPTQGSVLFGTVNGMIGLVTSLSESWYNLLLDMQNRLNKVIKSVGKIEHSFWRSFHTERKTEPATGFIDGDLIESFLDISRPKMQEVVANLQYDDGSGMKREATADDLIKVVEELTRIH

SMILES: Nc1cccc2c1CN(C1CCC(=O)NC1=O)C2=O (stereo not drawn) [lenalidomide]
- Luciferase level of FFluc fused to RAB28 (RAB28): not altered
- CSNK1A1 degradation in Baf3 cells expressing mCRBN^I391V (CSNK1A1 [1]): conferred sensitivity to lenalidomide-induced degradation of CSNK1A1
- CSNK1A1 protein levels in murine cells over-expressing human CRBN (CSNK1A1 [1]): sufficient to confer lenalidomide sensitivity to CSNK1A1; also recorded: reduced CSNK1A1 levels; also recorded: resulted in a decrease of CSNK1A1 protein levels
- CSNK1A1 protein levels in murine Baf3 cells or primary murine (MLL-AF9) leukemia cells (CSNK1A1 [1]; unmodified cells, 24 hours): No change; also recorded: did not decrease Csnk1a1 protein levels
- CSNK1A1 mRNA / RNA expression (CSNK1A1 [2]): No significant change; also recorded: did not alter CSNK1A1 mRNA levels
- Inhibition of CBR1 (CBR1): did not interact with CBR1 in direct binding assays or inhibit CBR1
- Degradation of IKZF1 and IKZF3 with CRBN mutant that does not bind lenalidomide (IKZF1 and IKZF3 [3]): abrogated degradation of IKZF1 and IKZF3
- IRF4 levels in proteomic analysis (IRF4; 12 hours): only slightly decreased
- IRF4 mRNA and protein (IRF4; 24 hours and longer): decreased expression of IRF4; also recorded: significant decrease of IRF4 mRNA and protein
- IKZF3 degradation in T cells from wild type mice (IKZF3): No IKZF3 degradation was observed

SMILES: CCCCNC(=O)CCCNc1cccc2c1CN(C1CCC(=O)NC1=O)C2=O (stereo not drawn) [lenalidomide derivative, N-butyl-4-((2-(2,6-dioxopiperidin-3-yl)-1-oxoisoindolin-4-yl)amino)butanamide]
- Biological activity / growth inhibition compared with lenalidomide (MM1S cells): retained the biological activity of lenalidomide, including selective growth inhibition of multiple myeloma cells

SMILES: NS(=O)(=O)OC[C@@H]1C[C@@H](n2ccc3c(N[C@H]4CCc5ccccc54)ncnc32)C[C@@H]1O [MLN-4924]
- Effect on lenalidomide-induced decrease in CSNK1A1 protein levels (CSNK1A1 [4]): abrogated
- Effect on lenalidomide-induced decrease of endogenous IKZF1 and IKZF3 (IKZF1 and IKZF3 [3]; MM cells, 1 μM MLN-4924): prevented the lenalidomide-induced decrease
- Effect on lenalidomide-induced decrease of FFluc-fused IKZF3 (IKZF1 and IKZF3 [5]): prevented the lenalidomide-induced decrease

SMILES: CC(C)C[C@@H](C=O)NC(=O)[C@H](CC(C)C)NC(=O)[C@H](CC(C)C)NC(=O)OCc1ccccc1 [MG132] (Cbz-Leu-Leu-Leu-aldehyde)
- Effect on lenalidomide-induced decrease in CSNK1A1 protein levels (CSNK1A1 [4]): abrogated
